Data taken from US7384656B2, “Anti-allergy composition and related method” (Access Business Group International LLC, priority 2004, dated 2008).

Legend:
Format in all cases: cell-based
[1] = test system: LTC4 release, RBL-2H3 cells; assay: LTC4 release from IgE-sensitized, DNP-BSA stimulated RBL-2H3 cells (ELISA); details: 1 μg/ml
Procedure: (§1) The methodology used to obtain the results of FIG. 9 will now be described. First, RBL-2H3 cells, available from ATCC (American Type Culture Collection) of Manassas, Va., were plated in 24 well plates at 5×10^4/well. Following adherence, the cells were exposed to the ingredients or combination of ingredients noted in FIG. 9, also referred to as samples. The samples were used at the concentrations noted in Table VI. Stock solutions of all samples were prepared in a solution of DMSO, ethanol, and water present in a ratio of 5:3:2 at 100 mg/ml. Each sample was then diluted in media to the final concentration. The cells were then incubated overnight with the samples. The following day a mouse anti-dinitrophenyl (DNP) IgE antibody, available from Sigma of St. Louis, Mo., was added to the cells at a final concentration of 1 ng/ml. The cells were incubated for 1.5 hr at 37° C. to allow binding of the IgE molecule to the cellular IgE receptor via the constant region of the antibody. Following this incubation period, the cells were washed twice. A solution containing DNP conjugated to BSA (DNP-BSA), available from Calbiochem of San Diego, Calif., was added to the cells at 0.5 ng/ml. […] Next, the measured OD450 data from the ELISA was inputted into a calibration graph to determine the amount by which histamine was reduced relative to an untreated control sample. […]

[2] = test system: IgE receptor (FcεRIα) on RBL-2H3 cells; assay: IgE receptor expression on RBL-2H3 cells (anti-FcεRIα cell ELISA normalized to MTT viability); details: 100 μg/ml
Procedure: The methodology used to obtain the results of FIG. 1 will now be described. First, RBL-2H3 cells, available from ATCC (American Type Culture Collection) of Manassas, Va., were plated in 96 well plates at 3×10^4/well. Following adherence to the wells, the cells were exposed to the sample combinations of ingredients listed in Table I, each combination referred to as a “sample.” Stock solutions of all samples were prepared in a solution of DMSO, ethanol, and water present in a ratio of 5:3:2 at 100 mg/ml. […] Duplicate plates of each sample were prepared so that viability could be determined multiple times for each sample, with the results of the multiple samples averaged following treatment of the cells. The plates were incubated an additional 48 hours. To measure IgE-receptor expression, the cells were fixed for 2 hours with 1% gluteraldehyde. Following fixation, the cells were washed twice with PBS-Tween 20 (0.01%), available from Aldrich of Milwaukee, Wis. Protein binding sites were blocked for 2 hours with 2% non-fat dry milk in PBS (Phosphate Buffer Saline buffered at pH 7.3). The cells were washed twice. The primary antibody, Rabbit anti-FcεRIα, available from Upstate Group, Inc., Lake Placid, N.Y., was added to the wells and diluted 1:4000 with 0.2% BSA (Bovine Serum Albumin). Following a 2 hour incubation, the wells were washed 5× with PBS-Tween 20 (0.01%) solutions. The secondary antibody, Goat anti-rabbit IgG-peroxidase, available from Sigma-Aldrich of St. Louis, Mo., was added to the wells at 1:20000 with 0.2% BSA. Following a 1 hour incubation the wells were washed five times. 100 μliters (microliters) of TMB (3,3′,5,5±Tetramethyl benzidine dihydrochloride) Substrate, available from Chemicon International of Temecula, Calif., was added to the wells. Subsequent color development was stopped by the addition of a sufficient amount, H2SO4 (for example, 100 μliters at 1 Normal). For each of the multiple samples of the combination, the OD450 (Optical Density measured at a wavelength of 450 nanometers) was read on a plate reader. Continuing with a description of the methodology to obtain the data in FIG. 1, the viability of the cells was next determined by incubating the cells in the second plate with MTT in a concentration of 1 mg/ml for 3 hours. The reduced MTT was extracted with 70% isopropanol and the OD540 (Optical Density at a wavelength of 540 nanometers) was read for each of the multiple samples.

[3] = test system: IgE secretion by U266 human myeloma cells; assay: IgE secretion by U266 human myeloma cells (IgE ELISA of supernatants); details: for Percent Control, IgE Secretion (IgE) (Table VIII): 100 μg/ml (no concentration printed for Formula)
Procedure: The methodology used to obtain the results of FIG. 3 will now be described. First, U266 human myeloma cells, available from ATCC of Manassas, Va. were plated in 96 well plates at 4×10^4/well. The cells were exposed to the sample combinations of ingredients listed in Table I, each combination referred to as a “sample.” Stock solutions of all samples were prepared in a solution of DMSO, ethanol, and water present in a ratio of 5:3:2 at 100 mg/ml. Each sample was then diluted to 100 μg/ml in media. Duplicate plates of each sample were prepared so that viability could be determined multiple times for each sample, with the results of the multiple samples averaged following treatment of the cells. The plates were incubated an additional 48 hours. Thereafter, the amount of IgE in the supernatants was measured using a conventional quantitative IgE ELISA kit available from Bethyl Laboratories of Montgomery, Tex. Next, the measured OD450 data from the IgE ELISA was inputted into a calibration graph, illustrated in FIG. 4, to determine the concentration of IgE in ng/ml in each supernatant. This calibration graph was generated by measuring the OD450 of multiple, known concentrations (in nanograms per ml) of purified IgE. As shown in the graph, the X-axis indicates the concentrations of the IgE in ng/ml; and the Y-axis indicates the OD450 derived from each of the concentrations. The line 100 connects the data points, while line 110 is a trend line corresponding to the equation in this particular embodiment of: Y=0.2909X−0.2527 Equation 1 With the IgE calibration graph, the amount of IgE for each sample was determined, and the subsequent data was input into FIG. 3 for comparative analysis.

[4] = test system: PGD2 release, RBL-2H3 cells; assay: PGD2 release from IgE-sensitized, DNP-BSA stimulated RBL-2H3 cells (ELISA); details: 10 μg/ml
Procedure: as §1

[5] = listed as Luteolin from Perilla seed

## O=c1cc(-c2ccc(O)c(O)c2)oc2cc(O)cc(O)c12 [Luteolin]
[1]
  Percent Control LTC4 Release (Table VI): 157%
[2]
  Percent Control, IgE Receptor Expression (IgE-R) (Table VIII): about 90%
  effect on IgE receptor expression, in words (FIG. 7): significant effect
[2]; relative to untreated control cells
  Percent Control IgE-Receptor (Table IV): 82%
[2]; [5]
  Percent Control, IgE Receptor Expression (IgE-R) (Table VIII): 90.1%
[3]
  Percent Control, IgE Secretion (IgE) (Table VIII): about 95%
[3]; [5]
  Percent Control, IgE Secretion (IgE) (Table VIII): 95.5%
[3]; 100 μg/ml, relative to untreated control cells
  Percent Control IgE-Secretion (Table V): 53%
[4]
  Percent Control of PGD2 Release (Table VI): 68%
